Test results taken from patent US20250059206A1, “FUSED RING COMPOUND ACTING AS SHP2 INHIBITOR” (priority 2021, published 2025).

test system: MIA PaCa-2 cells; assay: In vitro anti-proliferative activity against MIA PaCa-2 cells; type: cell-based; conditions: Homo sapiens, viability 72 h after dosing by intracellular ATP content, versus DMSO group
Protocol: Example 50. In Vtro Anti-Proliferative Activity of Compounds of the Present Invention Against MIA PaCa-2 Cells
MIA PaCa-2 cells were seeded on a 96-well plate at 3000 cells/well. After overnight adherence culture, DMSO or the compounds serially diluted 1:5 from […] were added. The viability was assessed 72 h after dosing by measuring the intracellular ATP content. The inhibition percentages of viable cells by the compounds were calculated by comparing with the DMSO group, and the IC50 values were calculated.

Compound	IC50
N[C@@H]1c2ccccc2CC12CCN(c1cnc3c(N4CCN5CCCc6cccc4c65)n[nH]c3n1)CC2 [Compound 1]	35.1 nM
N[C@@H]1c2ccccc2CC12CCN(c1cnc3c(N4CCN5C(=O)CCc6cccc4c65)n[nH]c3n1)CC2 [Compound 3]	5.1 nM
N[C@@H]1c2ccccc2CC12CCN(c1cnc3c(N4CCn5c(=O)ccc6cccc4c65)n[nH]c3n1)CC2 [Compound 6]	6.5 nM
N[C@@H]1c2ccccc2CC12CCN(c1cnc3c(N4CCN5C(=O)CCc6cc(F)cc4c65)n[nH]c3n1)CC2 [Compound 9]	8.9 nM
N[C@@H]1c2cccnc2CC12CCN(c1cnc3c(N4CCN5C(=O)CCc6cccc4c65)n[nH]c3n1)CC2 [Compound 12]	5.8 nM
N[C@@H]1c2cccnc2CC12CCN(c1cnc3c(N4CCn5c(=O)ccc6cccc4c65)n[nH]c3n1)CC2 [Compound 14]	7.2 nM
N[C@@H]1c2cc(O)ccc2CC12CCN(c1cnc3c(N4CCN5C(=O)CCc6cccc4c65)n[nH]c3n1)CC2 [Compound 21]	11.3 nM
Cc1ccc2c(c1)[C@@H](N)C1(CCN(c3cnc4c(N5CCN6C(=O)CCc7ccc(F)c5c76)n[nH]c4n3)CC1)C2 [Compound 36]	12.5 nM
Cc1ccc2c(c1)[C@@H](N)C1(CCN(c3cnc4c(N5CCN6C(=O)CCc7cc(F)cc5c76)n[nH]c4n3)CC1)C2 [Compound 41]	13.5 nM
N[C@@H]1c2cc(F)ccc2CC12CCN(c1cnc3c(N4CCN5C(=O)CCc6cc(F)cc4c65)n[nH]c3n1)CC2 [Compound 42]	10.1 nM
N[C@@H]1c2cc(O)ccc2CC12CCN(c1cnc3c(N4CCN5C(=O)CCc6c(F)ccc4c65)n[nH]c3n1)CC2 [Compound 45]	11.5 nM
N[C@@H]1c2cc(F)ccc2CC12CCN(c1cnc3c(N4CCN5C(=O)CCc6c(F)ccc4c65)n[nH]c3n1)CC2 [Compound 47]	9.5 nM

Now from value to molecule:

IC50	Compound
12.1 nM	N[C@@H]1c2ccccc2CC12CCN(c1cnc3c(N4CCN5C(=O)CCc6c(F)ccc4c65)n[nH]c3n1)CC2 [Compound 10]
9.3 nM	N[C@@H]1c2cccnc2CC12CCN(c1cnc3c(N4CCN5C(=O)CCc6cc(F)cc4c65)n[nH]c3n1)CC2 [Compound 16]
10.8 nM	NC1c2cccnc2CC12CCN(c1cnc3c(N4CCN5C(=O)CCc6c(F)ccc4c65)n[nH]c3n1)CC2 (stereo not drawn) [Compound 17]
9.6 nM	COc1cccc2c1CC1(CCN(c3cnc4c(N5CCN6C(=O)CCc7cccc5c76)n[nH]c4n3)CC1)[C@@H]2N [Compound 24]
8.1 nM	N[C@@H]1c2ccc(F)nc2CC12CCN(c1cnc3c(N4CCN5C(=O)CCc6cccc4c65)n[nH]c3n1)CC2 [Compound 26]
15.9 nM	N[C@@H]1c2ccc(Cl)nc2CC12CCN(c1cnc3c(N4CCN5C(=O)CCc6cccc4c65)n[nH]c3n1)CC2 [Compound 27]
17.3 nM	N[C@@H]1c2cc(O)ccc2CC12CCN(c1cnc3c(N4CCN5C(=O)CCc6ccc(F)c4c65)n[nH]c3n1)CC2 [Compound 35]
13.9 nM	N[C@@H]1c2cc(F)ccc2CC12CCN(c1cnc3c(N4CCN5C(=O)CCc6ccc(F)c4c65)n[nH]c3n1)CC2 [Compound 37]
15.6 nM	COc1cccc2c1CC1(CCN(c3cnc4c(N5CCN6C(=O)CCc7ccc(F)c5c76)n[nH]c4n3)CC1)[C@@H]2N [Compound 38]
18.1 nM	N[C@@H]1c2cc(O)ccc2CC12CCN(c1cnc3c(N4CCN5C(=O)CCc6cc(F)cc4c65)n[nH]c3n1)CC2 [Compound 40]
14 nM	Cc1ccc2c(c1)[C@@H](N)C1(CCN(c3cnc4c(N5CCN6C(=O)CCc7c(F)ccc5c76)n[nH]c4n3)CC1)C2 [Compound 46]
19.2 nM	COc1cccc2c1CC1(CCN(c3cnc4c(N5CCN6C(=O)CCc7c(F)ccc5c76)n[nH]c4n3)CC1)[C@@H]2N [Compound 48]
